# Measurements reported in PMC5731698, “Identification and characterization of the three members of the CLC family of anion transport proteins in Trypanosoma brucei” (PLoS ONE, 2017).
# Key:
# TbVCL2 = target: T1, TbVCL2 (Trypanosoma brucei, UniProt Q389H3); experiment: two-electrode voltage clamp, Xenopus oocytes; format: cell-based
# T1 construct: gene Tb10.26.0220; full-length, untagged cRNA in Xenopus laevis oocytes; dimer expected (CLC family), heterodimer with endogenous Xenopus CLC not excluded
# T1 sequence (Q389H3 1-941): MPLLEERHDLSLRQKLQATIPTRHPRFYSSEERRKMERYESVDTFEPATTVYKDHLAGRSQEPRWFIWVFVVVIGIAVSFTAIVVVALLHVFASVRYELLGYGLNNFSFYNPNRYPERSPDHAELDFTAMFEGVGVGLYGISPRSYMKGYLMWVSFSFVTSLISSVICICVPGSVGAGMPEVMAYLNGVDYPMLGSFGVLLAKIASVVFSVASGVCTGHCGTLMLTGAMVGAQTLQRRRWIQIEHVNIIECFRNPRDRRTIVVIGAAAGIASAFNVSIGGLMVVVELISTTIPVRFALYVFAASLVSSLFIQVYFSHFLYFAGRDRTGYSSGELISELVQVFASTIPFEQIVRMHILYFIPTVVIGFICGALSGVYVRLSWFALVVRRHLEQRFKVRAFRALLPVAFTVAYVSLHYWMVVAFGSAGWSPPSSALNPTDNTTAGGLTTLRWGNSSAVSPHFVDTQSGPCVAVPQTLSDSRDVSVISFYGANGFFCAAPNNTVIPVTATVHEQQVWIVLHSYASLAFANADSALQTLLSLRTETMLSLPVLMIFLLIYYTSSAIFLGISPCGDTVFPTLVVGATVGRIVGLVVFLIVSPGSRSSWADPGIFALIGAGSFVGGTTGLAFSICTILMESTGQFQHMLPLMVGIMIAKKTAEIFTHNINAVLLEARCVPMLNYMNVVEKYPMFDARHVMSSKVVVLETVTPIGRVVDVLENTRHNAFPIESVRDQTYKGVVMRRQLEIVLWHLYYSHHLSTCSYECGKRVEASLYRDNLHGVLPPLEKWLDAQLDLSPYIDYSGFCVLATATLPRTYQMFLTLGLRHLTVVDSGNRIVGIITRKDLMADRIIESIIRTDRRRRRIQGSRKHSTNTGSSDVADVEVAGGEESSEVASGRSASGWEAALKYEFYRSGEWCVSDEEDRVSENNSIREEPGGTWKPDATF
# TbVCL3 = target: T2, TbVCL3 (Trypanosoma brucei, UniProt Q381B7); experiment: two-electrode voltage clamp, Xenopus oocytes; format: cell-based
# T2 construct: gene Tb11.01.8420; full-length, untagged cRNA in Xenopus laevis oocytes; dimer expected (CLC family), heterodimer with endogenous Xenopus CLC not excluded
# T2 sequence (Q381B7 1-918): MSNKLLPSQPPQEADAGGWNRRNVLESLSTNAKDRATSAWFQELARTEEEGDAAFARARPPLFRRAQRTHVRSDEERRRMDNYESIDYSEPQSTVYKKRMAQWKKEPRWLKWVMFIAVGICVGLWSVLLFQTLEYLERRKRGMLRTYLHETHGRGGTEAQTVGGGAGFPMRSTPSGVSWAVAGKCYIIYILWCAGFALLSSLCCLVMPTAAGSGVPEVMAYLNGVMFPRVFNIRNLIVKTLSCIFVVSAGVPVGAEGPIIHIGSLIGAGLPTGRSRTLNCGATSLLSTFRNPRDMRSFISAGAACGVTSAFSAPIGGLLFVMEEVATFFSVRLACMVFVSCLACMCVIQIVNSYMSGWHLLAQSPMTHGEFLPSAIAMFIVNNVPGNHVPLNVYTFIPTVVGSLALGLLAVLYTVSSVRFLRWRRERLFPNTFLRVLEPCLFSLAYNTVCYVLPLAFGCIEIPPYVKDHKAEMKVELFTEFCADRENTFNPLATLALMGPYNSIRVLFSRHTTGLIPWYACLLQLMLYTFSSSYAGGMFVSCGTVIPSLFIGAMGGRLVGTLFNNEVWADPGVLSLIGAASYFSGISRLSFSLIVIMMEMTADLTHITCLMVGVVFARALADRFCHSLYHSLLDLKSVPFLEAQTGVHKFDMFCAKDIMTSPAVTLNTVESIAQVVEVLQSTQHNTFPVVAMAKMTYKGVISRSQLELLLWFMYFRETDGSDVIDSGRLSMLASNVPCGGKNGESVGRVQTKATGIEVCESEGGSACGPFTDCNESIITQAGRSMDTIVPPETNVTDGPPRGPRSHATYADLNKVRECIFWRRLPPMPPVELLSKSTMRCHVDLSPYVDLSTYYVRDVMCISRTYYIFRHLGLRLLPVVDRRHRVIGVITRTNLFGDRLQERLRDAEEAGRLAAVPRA
# Text: two-electrode voltage clamp, Xenopus oocytes on TbVCL3 | TbVCL3-expressing oocytes ...
structure (smiles),measurement,setting,value
"O=S(=O)(O)c1cc(N=C=S)ccc1/C=C/c1ccc(N=C=S)cc1S(=O)(=O)O [DIDS, 4,4-diisothiocyanostilbene-2,2-disulphonate]",IC50,TbVCL2,30 ± 3 µM
same,IC50,TbVCL3,56 ± 18 µM
